Experimental data: PMC7395176, “Retromer stabilization results in neuroprotection in a model of Amyotrophic Lateral Sclerosis” (Nature Communications, 2020)

What was measured:
[1] = Brain uptake of compound 2a by LC-MS/MS in C57BL/6J mice; type: in vivo; details: C57BL6J mice, daily intraperitoneal injections 10 mg/kg; 1, 7, 15, 30 days
Procedure: Compounds 2a, 4a, and standard R55/1 (10 mg/Kg) were intraperitoneally injected in C57BL6J mice daily. After 1 week, mice were sacrificed, saline perfused to avoid CNS contamination by compounds in blood circulation, and SC protein extracts were assayed by WB. […] Therefore, phenyl-1,3-bis-guanylhydrazone 2a was selected as an early lead.
Quantification of compound 2a in CNS extracts of C57BL/6J mice was performed at ProMeFa facility (Proteomics and Metabolomics Facility) of San Raffaele Scientific Institute. Wild-type C57BL/6J males mice (P60) were intraperitoneally injected with compound 2a (10 mg/kg) or vehicle, daily. We sacrificed mice at the following time points: 1, 7, 15, and 30 days. Before brains collection, mice received saline perfusion. Brains were weighted (~350 mg each) and rapidly frozen at −80 °C. The extraction was performed with methanol and each biological sample was resuspended in 60 µl of LC/MS grade water and 5 µL were analyzed by LC-MS/MS using the UPLC 1290 (Agilent Technologies) coupled to the TripleTOF 5600+ mass spectrometer (SCIEX). […] Calibration curve in brain was constructed by plotting the peak area versus corresponding quantities of compound 2a (0; 0.1; 0.26; 1 nmol, run in quadruplicates, R2 = 0.9443), using MultiQuant 2.1 software (SCIEX).

VPS35 = VPS35 (Mus musculus, UniProt Q9EQH3+Q9QZ88); test: VPS35 levels in MNs and lumbar SC of treated G93A mice; type: in vivo; design: from tissue; host or cells: mouse (lumbar) spinal cord, motor neurons; details: 10 mg/kg, day 100
Procedure: We asked whether compound 2a could do the same in G93A MNs, using confocal microscopy to quantify VPS35 fluorescence levels in MNs gated in the ventral horn of lumbar SCs. We observed a significant reduction of VPS35 mean fluorescence intensity (MFI) levels in vehicle-treated G93A mice. […] We next assayed VPS26 MFI levels on parallel sections.
Fluorescence intensity levels of VPS35, VPS26, CI-MPR, Sortilin, CTSD and Ubiquitin were calculated using NHI-Image J software (US National Institutes of Health) according to the following protocol: stacks of confocal images were used to generate the maximal projections using the Leica Application Suite X (2.0.0.14332) software and then postprocessed by NHI-Image J to crop single NeuN^+ MNs from the ventral horn of the spinal cord. We next performed background (calculated on adjacent slices only receiving secondary antibodies) subtraction for each channel, before applying the NHI-Image J mean filter (with radius 2.0 pixels) to calculate mean NeuN fluorescence levels in individual MNs. Using this approach, we established a region of interest (ROI) to gate single MNs. On this ROI, we measured mean fluoresce levels (MFI) of target proteins.
Compound 2a increases VPS35 levels in G93A mice […]

SMILES: NC(N)=N/N=C/c1cccc(/C=N/N=C(N)N)c1 [compound 2a, phenyl-1,3-bis-guanylhydrazone]
- access to the CNS (brain uptake) [1]: confirmed its access to the CNS
- VPS35 levels in lumbar SC extracts (WB) (VPS35): increase VPS35 and VPS26b levels
- VPS35 mean fluorescence intensity (MFI) in MNs (VPS35): significantly increased
